Each structure is given as a SMILES string.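 Protocol summary: plate cells (96-well), add compound at 5 concentrations, incubate 48 h, interpolate endpoints linearly. GI50 marks 50% less growth.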 The source made the active and inactive calls. No stated cut-off is given here; in the data, active = GI50 up to about 1.1 µM and inactive = higher.

What all share (assay): DTP human tumour cell line panel, 48 h
The subject of assay [1] is CAKI-1.
The test system of assay [2] is OVCAR-3.
For assay [3], the system named is MCF7.
The subject of assay [4] is EKVX.
For assay [5], the system named is UACC-62.
Assay [6] relates to T47D.
Assay [7] has as its system HL-60.
For assay [8], the system named is SF-295.
Assay [9] has as its system K562.
The test system of assay [10] is SR.
Assay [11] deals with 786-0.
Assay [12] deals with MDA-MB-435.
Assay [13] deals with OVCAR-5.
In assay [14] the test system is NCI-H226.
Assay [15] concerns Malme-3M.
For assay [16], the system named is IGROV-1.
The test system of assay [17] is HCT-116.
The subject of assay [18] is HCT-15.
Assay [19] deals with SNB-75.

Regarding `Cc1ccc2c(c1)-c1c(C#N)c(N)nc(-c3ccc(Cl)cc3)c1CCS2(=O)=O`, the GI50 in [1] was 5.97 µM (inactive); in assay [2], 3.94 µM (inactive); in assay [3] it was 5.37 µM (inactive); in assay [4] it was 20.8 µM (inactive); in assay [5] it was 4.37 µM (inactive); in [6], 17.3 µM (inactive). Further, the GI50 is 0.207 µM (active) in assay [7]; 4.21 µM (inactive) in assay [8]; 2.8 µM (inactive) in assay [9]; 1.87 µM (inactive) in assay [10]; 6.19 µM (inactive) in [11]; 2.52 µM (inactive) in assay [12]. Moreover, the GI50 in assay [13] was 49.9 µM (inactive); in assay [14] it was 28.6 µM (inactive); in [15], 5.07 µM (inactive); in assay [16], 5.43 µM (inactive); in assay [17] it was 4.45 µM (inactive); in [18] it was 4.6 µM. In assay [19], the GI50 was 3.21 µM (inactive).

As to `Clc1ccc(-c2nc3cc(C45CC6CC(CC(C6)C4)C5)ccc3[nH]2)cc1`, the GI50 was > 59.3 µM (inactive) in assay [1]; 21.7 µM (inactive) in assay [2]; 18.5 µM (inactive) in [3]; > 94.2 µM (inactive) in assay [4]; 31.3 µM (inactive) in assay [5]; 24.2 µM (inactive) in [6]. The GI50 was 2.07 µM (inactive) in [7]; 57.7 µM (inactive) in assay [8]; < 0.01 µM (active) in [9]; 5.64 µM (inactive) in assay [10]; 39.4 µM (inactive) in [11]; 36.1 µM (inactive) in [12]. Further, the GI50 in assay [13] was > 100 µM (inactive); in assay [14] it was > 65 µM (inactive); in assay [15], 24.5 µM (inactive); in assay [16], > 100 µM (inactive); in [17] it was 22.5 µM (inactive); in [18], 9.46 µM. The GI50 in [19] was > 100 µM (inactive).

In the case of `COc1ccc([C@@]23Oc4cc(OC)cc(OC)c4[C@]2(O)[C@H](O)[C@H](C(=O)N(C)C)[C@H]3c2ccccc2)cc1` [ROCAGLAMIDE], the GI50 in [1] was 0.0292 µM (active); in assay [2], 0.056 µM (active); in [3], 0.00292 µM (active); in assay [4] it was 0.0203 µM (active); in assay [5], 0.00676 µM (active); in assay [6], 0.00219 µM (active). The GI50 was 0.00383 µM (active) in assay [7]; 0.0045 µM (active) in assay [8]; 0.00237 µM (active) in assay [9]; 0.00162 µM (active) in [10]; 0.00953 µM (active) in [11]; 0.0036 µM (active) in [12]. Further, the GI50 in assay [13] is 0.00991 µM (active); in assay [14] it was 0.0113 µM (active); in [15], 0.00429 µM (active); in assay [16] it was 0.00612 µM (active); in assay [17], 0.00316 µM (active); in assay [18] it was 0.0176 µM. Moreover, the GI50 in assay [19] was 0.00935 µM (active).

In the case of `C/C(=C/c1ccccc1)CN(C(=O)/C=C\Sc1ccccc1)C(C)(C)C`, the GI50 was > 100 µM (inactive) in assay [1]; > 75.3 µM (inactive) in assay [2]; 65.2 µM (inactive) in [3]; > 70 µM (inactive) in assay [4]; > 100 µM (inactive) in [5]; > 31.2 µM (inactive) in [6]. For the same compound, the GI50 in assay [7] is 28 µM (inactive); in [8], > 100 µM (inactive); in [9], 27.2 µM (inactive); in assay [10] it was 19.6 µM (inactive); in assay [11] it was > 100 µM (inactive); in assay [12], > 100 µM (inactive). Besides, the GI50 in [13] was > 100 µM (inactive); in assay [14], > 94.4 µM (inactive); in [15], > 100 µM (inactive); in [16], > 100 µM (inactive); in assay [17] it was 24.8 µM (inactive); in [18] it was 37.2 µM. For the same compound, the GI50 in assay [19] is > 100 µM (inactive).

In the case of `NC[C@H]1Nc2ccccc2[C@@H](O)C1O` (stereo not given in full), the GI50 in assay [1], in assay [2], in assay [3], in [4], in [5] and in assay [6] was > 100 µM (inactive) throughout. For the same compound, the GI50 in assay [7], in assay [8], in [9], in assay [10], in assay [11] and in assay [12] was > 100 µM (inactive) each time. The GI50 in assay [13] was > 100 µM (inactive); in [14], > 100 µM (inactive); in [15], > 100 µM (inactive); in assay [16], > 100 µM (inactive); in assay [17], > 100 µM (inactive); in assay [18], over 100 µM. Moreover, the GI50 in assay [19] is > 100 µM (inactive).

For the compound `O=C(c1ccccc1)N1C(=S)N(c2ccccn2)C(=N/c2ccccc2)/C1=N\c1ccccc1`, the GI50 in assay [1] was 10.5 µM (inactive); in assay [2], 18.2 µM (inactive); in [3] it was 60.8 µM (inactive); in assay [4], 24 µM (inactive); in assay [5] it was 11.2 µM (inactive); in assay [6] it was 15.1 µM (inactive). Moreover, the GI50 in [7] is 3.66 µM (inactive); in assay [8], 25.5 µM (inactive); in assay [9], 7.18 µM (inactive); in assay [10] it was 3.86 µM (inactive); in [11] it was 16.7 µM (inactive); in [12], 19.6 µM (inactive). Besides, the GI50 was 11.2 µM (inactive) in assay [13]; > 69.3 µM (inactive) in assay [14]; 20 µM (inactive) in assay [15]; 13 µM (inactive) in assay [16]; 12.8 µM (inactive) in assay [17]; 3.79 µM in assay [18]. For the same compound, in assay [19], the GI50 is 20.5 µM (inactive).

As to `CC1(C)CC2C(/C1=N/O)C1(C)CCCC2(C)C1O` (stereo not given), the GI50 in assay [1], in assay [2], in [3], in [4], in assay [5] and in assay [6] was > 100 µM (inactive) in each case. The GI50 in [7], in [8], in assay [9], in assay [10], in [11] and in assay [12] was > 100 µM (inactive) throughout. For the same compound, the GI50 in assay [13] is > 100 µM (inactive); in [14], > 100 µM (inactive); in [15] it was > 100 µM (inactive); in [16] it was > 100 µM (inactive); in assay [17] it was > 100 µM (inactive); in assay [18], over 100 µM. Besides, in assay [19], the GI50 was > 100 µM (inactive).

Take `C=C1[C@H](OC(=O)C(C)C)[C@@H](OC(C)=O)[C@@H](OC(C)=O)C(C)(C)[C@@H]2O[C@H]2[C@@H](C)C(=O)[C@@]2(OC(C)=O)C[C@@](C)(OC(C)=O)[C@H](OC(C)=O)[C@@H]2[C@H]1OC(C)=O`: the GI50 in assay [1], in assay [2], in [3], in assay [4], in assay [5] and in assay [6] was > 100 µM (inactive) each time. Moreover, the GI50 in [7], in assay [8], in assay [9], in assay [10], in assay [11] and in [12] was > 100 µM (inactive) in each case. The GI50 in assay [13] was > 100 µM (inactive); in assay [14], > 100 µM (inactive); in assay [15], > 100 µM (inactive); in [16], > 100 µM (inactive); in assay [17], > 100 µM (inactive); in [18], over 100 µM. Besides, the GI50 in assay [19] was 0.69 µM (active).

Consider `O=C(O)CSc1ncccc1[N+](=O)[O-]`, for which the GI50 in assay [1], in assay [2], in [3], in assay [4], in assay [5] and in assay [6] was > 100 µM (inactive) throughout. Also, the GI50 in [7], in assay [8], in assay [9], in assay [10], in [11] and in assay [12] was > 100 µM (inactive) each time. Also, the GI50 is > 100 µM (inactive) in assay [13]; > 100 µM (inactive) in [14]; > 100 µM (inactive) in [15]; > 100 µM (inactive) in assay [16]; > 100 µM (inactive) in assay [17]; over 100 µM in assay [18]. In addition, the GI50 in [19] was > 100 µM (inactive).

On to `COc1cccc2c1C(=O)c1c(O)c3c(c(O)c1C2=O)C[C@@](O)(/C(C)=N/NC(=O)c1ccc(Cl)c(Cl)c1)C[C@@H]3OC1CC(N)C(O)C(C)O1` (stereo not given in full), for which the GI50 in assay [1] was 0.0646 µM (active); in assay [2], 0.226 µM (active); in assay [3], 0.0693 µM (active); in [4], 0.904 µM (active); in assay [5], 0.11 µM (active); in [6] it was 0.372 µM (active). The GI50 in [7] was 0.0348 µM (active); in assay [8] it was 0.078 µM (active); in assay [9], 0.197 µM (active); in assay [10], < 0.01 µM (active); in assay [11], 0.191 µM (active); in assay [12], 0.27 µM (active). Further, the GI50 in [13] is 0.374 µM (active); in assay [14], 0.092 µM (active); in assay [15], 0.0237 µM (active); in assay [16], 0.462 µM (active); in [17], 0.0391 µM (active); in assay [18], 0.219 µM. The GI50 in [19] is 0.0448 µM (active).

A word on the GI50: it is the concentration giving 50% growth inhibition.

The values above are taken from ChEMBL document CHEMBL1201862, “PubChem BioAssay data set” (2004).
